From patent US12370192B2, “Azole-fused pyridazin-3(2H)-one derivatives” (TAKEDA PHARMACEUTICAL COMPANY LIMITED, priority 2019, dated 2025) come the findings set out here.

The target of test [1] is T1, human GPR139 receptor (Homo sapiens, UniProt Q6DWJ6).
T1 construct: expressed in transfected cells; host or cells: T-REx-CHO (Thermo Fisher Scientific), doxycycline-induced
T1 sequence (Q6DWJ6 1-353): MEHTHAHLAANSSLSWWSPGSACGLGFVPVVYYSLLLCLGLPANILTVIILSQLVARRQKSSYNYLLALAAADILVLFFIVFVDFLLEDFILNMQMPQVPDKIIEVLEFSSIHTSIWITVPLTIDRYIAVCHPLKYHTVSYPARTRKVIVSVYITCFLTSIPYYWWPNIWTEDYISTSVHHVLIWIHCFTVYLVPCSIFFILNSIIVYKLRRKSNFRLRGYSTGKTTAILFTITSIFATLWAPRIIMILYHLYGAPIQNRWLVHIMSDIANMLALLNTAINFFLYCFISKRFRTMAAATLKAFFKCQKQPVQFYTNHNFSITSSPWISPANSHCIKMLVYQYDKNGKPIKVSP
As to the kind of experiment: Measurement of GPR139 Activation Via Calcium Signaling (FLIPR, T-REx-CHO cells). The following applies: T-REx-CHO cells stably expressing human GPR139, 11-point dose response, 10 μM maximum concentration, read-out: GPR139 Potency (pEC50) (converted). The test is classed as cell-based. Summed up:
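Calcium flux read by FLIPR for 1 min after adding compounds (11 concentrations, maximum 10 μM) to doxycycline-induced (2 μg/mL, 17 h) T-REx-CHO cells expressing human GPR139. Cells dye-loaded 40 min at 37 °C in HBSS, 1 mM HEPES pH 7.4 with probenecid; activation reported as pEC50 from four-parameter logistic fit.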

Test [2] concerns the target T1, human GPR139 receptor. As to the kind of experiment: GPR139 Competition Binding (membrane-based, tritium-labeled ligand). To be noted: T-REx-CHO membranes with human GPR139; 6.5 nM tritium-labeled ligand; 11-point curve, 30 μM maximum concentration; read-out: GPR139 Binding Affinity (pKi) (converted). Summed up: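 Membranes came from doxycycline-induced T-REx-CHO cells expressing human GPR139. They were incubated 20 min at room temperature with 6.5 nM tritiated ligand and compound (11 points, top 30 μM) in HEPES pH 7.3 buffer with MgCl2/CaCl2. Filter-bound counts gave Ki by four-parameter fit, reported as pKi.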

On to `Cc1nn(C2CC2)c2cnn(CC(=O)N[C@@H](C)c3cc(F)cc(F)c3)c(=O)c12` [Example 135, (S)-2-(1-cyclopropyl-3-methyl-4-oxo-1,4-dihydro-5H-pyrazolo[3,4-d]pyridazin-5-yl)-N-(1-(3,5-difluorophenyl)ethyl)acetamide], for which the EC50 at human GPR139 receptor [1] was 14.1 nM. Further, on human GPR139 receptor [2], the Ki is 132 nM.
For `Cc1nn(C2CC2)c2cnn(CC(=O)N[C@@H](C)c3c(F)cccc3Cl)c(=O)c12` [Example 136, (S)—N-(1-(2-chloro-6-fluorophenyl)ethyl)-2-(1-cyclopropyl-3-methyl-4-oxo-1,4-dihydro-5H-pyrazolo[3,4-d]pyridazin-5-yl)acetamide] the same measures were 91.2 nM and 81.3 nM.
As for `Cc1nn(CC(=O)N[C@@H](C)c2ccc(C(F)(F)F)cn2)c(=O)c2ncn(C)c12` [Example 137, (S)-2-(1,7-dimethyl-4-oxo-1,4-dihydro-5H-imidazo[4,5-d]pyridazin-5-yl)-N-(1-(5-(trifluoromethyl)pyridin-2-yl)ethyl)acetamide], at human GPR139 receptor [1], the EC50 was 2630 nM. In addition, the Ki on human GPR139 receptor [2] is 30200 nM.
`Cc1ccc([C@H](C)NC(=O)Cn2ncc3ncn(C)c3c2=O)cc1` [Example 138, (S)-2-(3-methyl-4-oxo-3,4-dihydro-5H-imidazo[4,5-d]pyridazin-5-yl)-N-(1-(p-tolyl)ethyl)acetamide]: on human GPR139 receptor [1], the EC50 was 363 nM. Besides, the Ki at human GPR139 receptor [2] is 30200 nM.
With `C[C@H](NC(=O)Cn1ncc2ncn(C)c2c1=O)c1ccc(C(F)(F)F)cc1` [Example 139, (S)-2-(3-methyl-4-oxo-3,4-dihydro-5H-imidazo[4,5-d]pyridazin-5-yl)-N-(1-(4-(trifluoromethyl)phenyl)ethyl)acetamide], at human GPR139 receptor [1], the EC50 was 257 nM. Besides, at human GPR139 receptor [2], the Ki is 3800 nM.
With `Cc1ccc([C@H](C)NC(=O)Cn2ncc3c(ncn3C)c2=O)cc1` [Example 140, (S)-2-(1-methyl-4-oxo-1,4-dihydro-5H-imidazo[4,5-d]pyridazin-5-yl)-N-(1-(p-tolyl)ethyl)acetamide], the EC50 on human GPR139 receptor [1] is 525 nM. In addition, at human GPR139 receptor [2], the Ki was 30200 nM.
For `C[C@H](NC(=O)Cn1ncc2c(ncn2C)c1=O)c1ccc(C(F)(F)F)cc1` [Example 141, (S)-2-(1-methyl-4-oxo-1,4-dihydro-5H-imidazo[4,5-d]pyridazin-5-yl)-N-(1-(4-(trifluoromethyl)phenyl)ethyl)acetamide] the same measures were 457 nM and 5890 nM.
For `C[C@H](NC(=O)Cn1ncc2c(C3CC3)nn(C)c2c1=O)c1ccc(C(F)(F)F)cc1` [Example 142, (S)-2-(3-cyclopropyl-1-methyl-7-oxo-1,7-dihydro-6H-pyrazolo[3,4-d]pyridazin-6-yl)-N-(1-(4-(trifluoromethyl)phenyl)ethyl)acetamide] the same measures were 95.5 nM and 229 nM.
For the compound `C[C@H](NC(=O)Cn1ncc2c(C3CC3)nn(C)c2c1=O)c1ccc(OC(F)(F)F)cc1` [Example 143, (S)-2-(3-cyclopropyl-1-methyl-7-oxo-1,7-dihydro-6H-pyrazolo[3,4-d]pyridazin-6-yl)-N-(1-(4-(trifluoromethoxy)phenyl)ethyl)acetamide], the EC50 at human GPR139 receptor [1] is 117 nM. Moreover, the Ki on human GPR139 receptor [2] was 178 nM.
With `Cc1cn(C2CC2)c2cnn(CC(=O)N[C@@H](C)c3ccc(C(F)(F)F)cc3)c(=O)c12` [Example 144, (S)-2-(1-cyclopropyl-3-methyl-4-oxo-1,4-dihydro-5H-pyrrolo[2,3-d]pyridazin-5-yl)-N-(1-(4-(trifluoromethyl)phenyl)ethyl)acetamide], at human GPR139 receptor [1], the EC50 was 83.2 nM. For the same compound, the Ki at human GPR139 receptor [2] is 20 nM.
For `COc1ccc([C@H](C)NC(=O)Cn2ncc3c(c(C)cn3C3CC3)c2=O)cc1` [Example 145, (S)-2-(1-cyclopropyl-3-methyl-4-oxo-1,4-dihydro-5H-pyrrolo[2,3-d]pyridazin-5-yl)-N-(1-(4-methoxyphenyl)ethyl)acetamide], the EC50 at human GPR139 receptor [1] was 29.5 nM. Also, at human GPR139 receptor [2], the Ki is 89.1 nM.
On the same counts, the results for `Cc1cn(C2CC2)c2cnn(CC(=O)N[C@@H](C)c3ccccc3)c(=O)c12` [Example 146, (S)-2-(1-cyclopropyl-3-methyl-4-oxo-1,4-dihydro-5H-pyrrolo[2,3-d]pyridazin-5-yl)-N-(1-phenylethyl)acetamide] are 51.3 nM and 34.7 nM.
On to `Cc1ccc([C@H](C)NC(=O)Cn2ncc3c(c(C)cn3C3CC3)c2=O)cc1` [Example 147, (S)-2-(1-cyclopropyl-3-methyl-4-oxo-1,4-dihydro-5H-pyrrolo[2,3-d]pyridazin-5-yl)-N-(1-(p-tolyl)ethyl)acetamide], for which the EC50 on human GPR139 receptor [1] is 33.1 nM. The Ki on human GPR139 receptor [2] was 7.59 nM.
As for `C[C@H](NC(=O)Cn1ncc2c(C3CC3)nn(C)c2c1=O)c1cccc(F)c1` [Example 148, (S)-2-(3-cyclopropyl-1-methyl-7-oxo-1,7-dihydro-6H-pyrazolo[3,4-d]pyridazin-6-yl)-N-(1-(3-fluorophenyl)ethyl)acetamide], the EC50 at human GPR139 receptor [1] was 20 nM. For the same compound, the Ki on human GPR139 receptor [2] was 589 nM.
With `Cc1ccc([C@H](C)NC(=O)Cn2ncc3c(C4CC4)nn(C)c3c2=O)cc1` [Example 149, (S)-2-(3-cyclopropyl-1-methyl-7-oxo-1,7-dihydro-6H-pyrazolo[3,4-d]pyridazin-6-yl)-N-(1-(p-tolyl)ethyl)acetamide], the EC50 on human GPR139 receptor [1] is 26.3 nM. For the same compound, at human GPR139 receptor [2], the Ki is 219 nM.
Consider `C[C@H](NC(=O)Cn1ncc2c(C3CC3)nn(C)c2c1=O)c1c(F)cccc1Cl` [Example 150, (S)—N-(1-(2-chloro-6-fluorophenyl)ethyl)-2-(3-cyclopropyl-1-methyl-7-oxo-1,7-dihydro-6H-pyrazolo[3,4-d]pyridazin-6-yl)acetamide], for which the EC50 on human GPR139 receptor [1] was 47.9 nM. Moreover, the Ki on human GPR139 receptor [2] is 77.6 nM.
For `Cc1ccc([C@H](C)NC(=O)Cn2ncc3c(C4CC4)nn(C)c3c2=O)cc1F` [Example 151, (S)-2-(3-cyclopropyl-1-methyl-7-oxo-1,7-dihydro-6H-pyrazolo[3,4-d]pyridazin-6-yl)-N-(1-(3-fluoro-4-methylphenyl)ethyl)acetamide] the same measures were 20.4 nM and 60.3 nM.
With `Cc1ccc([C@H](C)NC(=O)Cn2ncc3c(C4CC4)nn(C)c3c2=O)c(F)c1` [Example 152, (S)-2-(3-cyclopropyl-1-methyl-7-oxo-1,7-dihydro-6H-pyrazolo[3,4-d]pyridazin-6-yl)-N-(1-(2-fluoro-4-methylphenyl)ethyl)acetamide], the EC50 at human GPR139 receptor [1] is 28.8 nM. Also, at human GPR139 receptor [2], the Ki is 110 nM.
As for `C[C@H](NC(=O)Cn1ncc2ccn(C)c2c1=O)c1ccccc1` [Example 153, (S)-2-(1-methyl-7-oxo-1,7-dihydro-6H-pyrrolo[2,3-d]pyridazin-6-yl)-N-(1-phenylethyl)acetamide], the EC50 at human GPR139 receptor [1] is 89.1 nM. For the same compound, at human GPR139 receptor [2], the Ki was 1740 nM.
In the case of `Cc1nn(CC(=O)N[C@@H](C)c2cccc(F)c2)c(=O)c2c1c(C)nn2C` [Example 154, (S)—N-(1-(3-fluorophenyl)ethyl)-2-(1,3,4-trimethyl-7-oxo-1,7-dihydro-6H-pyrazolo[3,4-d]pyridazin-6-yl)acetamide], at human GPR139 receptor [1], the EC50 was 21.4 nM. The Ki on human GPR139 receptor [2] is 490 nM.
